Drawing on patent publication US20230203081A1, “LINCOSAMIDE ANTIBIOTICS AND USES THEREOF” (President and Fellows of Harvard College, priority 2020, published 2023), this text covers MIC for five molecules.

Molecules are shown by their SMILES. Converted amounts (≈) assume the structure as drawn. Where two headings read alike, the source gives them in different places.

Holding throughout (assay type): cell-based
The test system of one test is E. coli ΔTolC. Briefly: microbe, parasite or virus in culture. The note with it: Escherichia coli. On the procedure:
(§1) Minimum inhibitory concentrations (MICs) were determined by broth microdilution method or agar dilution method following the Clinical and Laboratory Standards Institute guidelines. Standard bacterial strains were obtained from American Type Culture Collection (ATCC). Other bacterial strains were obtained from hospitals and commercial sources, so noted in Table 11. […] Specialized procedures were employed for streptococcal and anaerobic strains. All other bacterial strains were sub-cultured on blood agar plates (tryptic soy agar with 5% sheep blood, Hardy Diagnostics) and incubated overnight at 35° C. […] Suspensions were further diluted to obtain a final inoculum of 5×10^5 CFU/mL for broth microdilution experiments.

In another test the test system is S. aureus cErmA. Briefly: MIC (broth microdilution or agar dilution, CLSI). The note with it: Staphylococcus aureus; S. aureus cErmA; read-out: MIC. On the procedure: (§2) Minimum inhibitory concentrations (MICs) were determined by broth microdilution method or agar dilution method following the Clinical and Laboratory Standards Institute guidelines. Standard bacterial strains were obtained from American Type Culture Collection (ATCC). Other bacterial strains were obtained from hospitals and commercial sources, so noted in Table 11. Before the start of the MIC experiment, standard and test compound stock solutions were prepared in dimethyl sulfoxide (DMSO, Aldrich D2650) at a stock concentration of 5,120 μg/mL. The compound concentration range typically employed for each experiment was 128-0.06 μg/mL (2.5% final DMSO concentration). Clindamycin was used as a comparator in all experiments and each experiment was performed in triplicate. Specialized procedures were employed for streptococcal and anaerobic strains. All other bacterial strains were sub-cultured on blood agar plates (tryptic soy agar with 5% sheep blood, Hardy Diagnostics) and incubated overnight at 35° C. Organisms were suspended in cation-adjusted Mueller-Hinton broth (CaMHB, BD 212322) and optical density was adjusted to 0.5 McFarland standard. Suspensions were further diluted to obtain a final inoculum of 5×10^5 CFU/mL for broth microdilution experiments.
Background: Broth dilution looks for growth in wells or tubes with falling amounts of substance.

The next test deals with E. faecium Clinical VRE. Briefly: MIC (broth microdilution or agar dilution, CLSI). The note with it: Enterococcus faecium; E. faecium Clinical VRE; read-out: MIC. On the procedure: as §2
The test system of a further test is P. aeruginosa ATCC 27853. As to the kind of experiment: MIC (broth microdilution or agar dilution, CLSI). The note with it: Pseudomonas aeruginosa, ATCC27853; P. aeruginosa ATCC 27853; read-out: MIC. On the procedure: as §2
A further test deals with S. aureus ATCC 29213. As to the kind of experiment: MIC (broth microdilution or agar dilution, CLSI). The note with it: Staphylococcus aureus, read-out: MIC. On the procedure:
as §1

A further test deals with S. pneumoniae ATCC 49619. As to the kind of experiment: MIC (broth microdilution or agar dilution, CLSI). The note with it: Streptococcus pneumoniae, read-out: MIC. Here is the method: as §1
A further test relates to K. oxytoca Clinical. Briefly: MIC (broth microdilution or agar dilution, CLSI). The note with it: Klebsiella oxytoca, read-out: MIC. On the procedure: as §1
In another test the test system is S. pyogenes ATCC 19615. As to the kind of experiment: MIC (broth microdilution or agar dilution, CLSI). The note with it: Streptococcus pyogenes, read-out: MIC. On the procedure:
as §1

A further test concerns A. baumannii ATCC 19606. As to the kind of experiment: MIC (broth microdilution or agar dilution, CLSI). The note with it: Acinetobacter baumannii, ATCC19606; A. baumannii ATCC 19606; read-out: MIC. Here is the method: as §1
For the next test, the system named is E. coli LptD. Briefly: MIC (broth microdilution or agar dilution, CLSI). The note with it: Escherichia coli, read-out: MIC. On the procedure:
as §1

A further test has as its system E. coli ATCC 25922. As to the kind of experiment: MIC (broth microdilution or agar dilution, CLSI). The note with it: Escherichia coli, ATCC25922, read-out: MIC. Here is the method: as §1
Another test has as its system E. faecalis ATCC 29212. Briefly: MIC (broth microdilution or agar dilution, CLSI). The note with it: Enterococcus faecalis, read-out: MIC. Here is the method:
as §1

Test [1] deals with broad panel of different clinical isolates. Briefly: microbe, parasite or virus in culture. On the procedure:
as §1

The next test concerns S. aureus MMX 3035 cErmA. Briefly: MIC (broth microdilution or agar dilution, CLSI). The note with it: Staphylococcus aureus, MMX3035CERMA; S. aureus HAV#031, MMX 3035; cErmA; read-out: MIC. Here is the method: as §1
The mark [2] stands for this setting: ATCC29213, S. aureus ATCC 29213.
The mark [3] stands for this setting: ATCC49619, S. pneumoniae ATCC 49619.
Where [4] appears, read: ATCC19615, S. pyogenes ATCC 19615.
The mark [5] stands for this setting: ATCC29212, E. faecalis ATCC 29212.

As for `CC[C@@H]1CCO[C@@H]2[C@H](CN[C@@H]2C(=O)N[C@H]([C@H](C)Cl)[C@H]2OC(SC)[C@H](O)[C@H](O)C2O)C1` (some centres unmarked) [FSA-10-10-012], the MIC with E. coli ΔTolC (E. coli ΔTolC) was 0.5 µg/mL (≈ 1.07 µM); in the test with S. aureus cErmA it was 8 µg/mL (≈ 17.1 µM); in the test with E. faecium Clinical VRE, 8 µg/mL (≈ 17.1 µM); in the test on P. aeruginosa ATCC 27853, more than 128 µg/mL; with S. aureus ATCC 29213 (setting [2]), 0.125 µg/mL (≈ 0.268 µM); with S. pneumoniae ATCC 49619 (setting [3]), 0.125 µg/mL (≈ 0.268 µM). Besides, the MIC in the test with K. oxytoca Clinical (K. oxytoca Clinical) is 16 µg/mL (≈ 34.3 µM); in the test with S. pyogenes ATCC 19615 (setting [4]), 0.125 µg/mL (≈ 0.268 µM); in the test with A. baumannii ATCC 19606, 32 µg/mL (≈ 68.5 µM); in the test on E. coli LptD (E. coli LptD) it was 2 µg/mL (≈ 4.28 µM); in the test on E. coli ATCC 25922 (E. coli ATCC 25922), 16 µg/mL (≈ 34.3 µM); in the test with E. faecalis ATCC 29212 (setting [5]) it was 0.25 µg/mL (≈ 0.535 µM).

For `C=C[C@@H]1CCO[C@@H]2[C@H](CN[C@@H]2C(=O)N[C@H]([C@H](C)Cl)[C@H]2OC(SC)[C@H](O)[C@H](O)C2O)C1` (some centres unmarked) [FSA-10-10-013], the MIC in the test with E. coli ΔTolC (E. coli ΔTolC) was 2 µg/mL (≈ 4.3 µM); in the test on S. aureus cErmA, 64 µg/mL (≈ 138 µM); in the test on E. faecium Clinical VRE, 32 µg/mL (≈ 68.8 µM); with P. aeruginosa ATCC 27853, more than 128 µg/mL; in the test with S. aureus ATCC 29213 (setting [2]), 0.25 µg/mL (≈ 0.538 µM); with S. pneumoniae ATCC 49619 (setting [3]) it was 0.25 µg/mL (≈ 0.538 µM). Also, the MIC is 128 µg/mL (≈ 275 µM) in the test with K. oxytoca Clinical (K. oxytoca Clinical); 0.25 µg/mL (≈ 0.538 µM) with S. pyogenes ATCC 19615 (setting [4]); more than 128 µg/mL in the test on A. baumannii ATCC 19606; 4 µg/mL (≈ 8.6 µM) with E. coli LptD (E. coli LptD); 64 µg/mL (≈ 138 µM) with E. coli ATCC 25922 (E. coli ATCC 25922); 2 µg/mL (≈ 4.3 µM) with E. faecalis ATCC 29212 (setting [5]).

`CSC1O[C@H]([C@H](NC(=O)[C@H]2NC[C@@H]3C[C@H](C)CCO[C@H]32)[C@H](C)Cl)C(O)[C@@H](O)[C@H]1O` (some centres unmarked) [FSA-10-10-014]: the MIC was 8 µg/mL (≈ 17.7 µM) with E. coli ΔTolC (E. coli ΔTolC); 64 µg/mL (≈ 141 µM) with S. aureus cErmA; 64 µg/mL (≈ 141 µM) in the test on E. faecium Clinical VRE; more than 128 µg/mL in the test with P. aeruginosa ATCC 27853; 1 µg/mL (≈ 2.21 µM) in the test on S. aureus ATCC 29213 (setting [2]); 2 µg/mL (≈ 4.42 µM) in the test on S. pneumoniae ATCC 49619 (setting [3]). The MIC in the test with K. oxytoca Clinical (K. oxytoca Clinical) was 128 µg/mL (≈ 283 µM); in the test with S. pyogenes ATCC 19615 (setting [4]) it was 1 µg/mL (≈ 2.21 µM); with A. baumannii ATCC 19606, more than 128 µg/mL; in the test with E. coli LptD (E. coli LptD), 8 µg/mL (≈ 17.7 µM); with E. coli ATCC 25922 (E. coli ATCC 25922), 64 µg/mL (≈ 141 µM); in the test on E. faecalis ATCC 29212 (setting [5]) it was 16 µg/mL (≈ 35.3 µM).

Turning to `COCCC[C@@H]1CCO[C@@H]2[C@H](CN[C@@H]2C(=O)N[C@H]([C@H](C)Cl)[C@H]2OC(SC)[C@H](O)[C@H](O)C2O)C1` (some centres unmarked) [FSA-10-10-022], the MIC against E. coli ΔTolC (E. coli ΔTolC) was 0.5 µg/mL (≈ 0.978 µM); in the test on S. aureus cErmA, 16 µg/mL (≈ 31.3 µM); with E. faecium Clinical VRE it was 8 µg/mL (≈ 15.7 µM); in the test with P. aeruginosa ATCC 27853 it was more than 128 µg/mL; in the test on S. aureus ATCC 29213 (setting [2]), 0.125 µg/mL (≈ 0.245 µM); with S. pneumoniae ATCC 49619 (setting [3]), 0.25 µg/mL (≈ 0.489 µM). The MIC with K. oxytoca Clinical (K. oxytoca Clinical) is 32 µg/mL (≈ 62.6 µM); with S. pyogenes ATCC 19615 (setting [4]) it was 0.25 µg/mL (≈ 0.489 µM); in the test with A. baumannii ATCC 19606, more than 128 µg/mL; in the test with E. coli LptD (E. coli LptD), 4 µg/mL (≈ 7.83 µM); with E. coli ATCC 25922 (E. coli ATCC 25922) it was 32 µg/mL (≈ 62.6 µM); in the test on E. faecalis ATCC 29212 (setting [5]), 2 µg/mL (≈ 3.91 µM).

For the molecule `CS(=O)(=O)c1ccc([C@@H](O)[C@@H](CO)NC(=O)C(Cl)Cl)cc1` [Thiamphenicol], the MIC in test [1] (Enterococcus faecalis, VRE, E. faecalis HAV#251, Clinical VRE) was 8 µg/mL (≈ 22.5 µM); in [1] (Klebsiella pneumoniae, K. pneumoniae HAV#041, Clinical, KPC), more than 64 µg/mL; with E. coli ΔTolC (E. coli HAV#038, ΔTolC), 16 µg/mL (≈ 44.9 µM); in the test with S. aureus MMX 3035 cErmA, 32 µg/mL (≈ 89.8 µM); with S. aureus ATCC 29213 (ATCC29213, S. aureus HAV#001, ATCC 29213, MP-549) it was 32 µg/mL (≈ 89.8 µM); in the test with S. pneumoniae ATCC 49619 (ATCC49619, S. pneumoniae HAV#003, ATCC 49619), 2 µg/mL (≈ 5.61 µM). The MIC stood at 64 µg/mL (≈ 180 µM) in the test on K. oxytoca Clinical (K. oxytoca HAV#450, Clinical); 4 µg/mL (≈ 11.2 µM) in the test on S. pyogenes ATCC 19615 (ATCC19615, S. pyogenes HAV#004, ATCC 19615); 32 µg/mL (≈ 89.8 µM) in the test with E. coli LptD (E. coli HAV#040, LptD); 64 µg/mL (≈ 180 µM) in the test on E. coli ATCC 25922 (E. coli HAV#006, ATCC 25922); 16 µg/mL (≈ 44.9 µM) in the test with E. faecalis ATCC 29212 (ATCC29212, E. faecalis HAV#005, ATCC 29212).
